{"source": "patent US20110124572A1", "about": "“SYNDECAN-4 IS A REGULATOR OF RAC1-GTP” (priority 2008, published 2011)", "assay_type_in_all_cases": "cell-based, human", "key": {"Rac1": {"test_system": "Rac1", "assay": "Rac1 GTPase pulldown assay (Rac1-GTP level)", "conditions": "wt-, Ser179Ala and Ser179Glu syndecan-4 cell lines, Gö6976", "method": "Rac1 activity was characterised by applying RAC-activation kit purchased from Millipore (Upstate) and it was used according to the manufacturer's prescription. Briefly, p21-binding domain of PAK-1 was fused to agarose beads, which specifically binds to and precipitates Rac-GTP and Cdc42-GTP from cell lysates. Cells were harvested at 70% confluency of 25 ml flasks. The wild type Syndecan-4, Ser179Ala and Ser179Glu cells were treated for 60 minutes with 1 μM PMA (Sigma-Aldrich), or 500 nM rottlerin (Sigma-Aldrich), or 10 nM Gö6976 (Biosource, Camarillo, Calif., USA). The active Rac1 was detected by Western blotting using mouse anti-Rac1 antibody (Upstate). To test whether GST-Pak1-Rac/Cdc42-binding domain could pull syndecan-4 down, the blot was probed with rabbit polyclonal anti-syndecan-4 or mouse monoclonal anti-GFP antibody."}, "MCF-7 cells": {"test_system": "MCF-7 cells", "assay": "Cell migration assay (time-lapse) on fibronectin", "conditions": "nt-MCF-7 (non-transfected) cells, PMA stimulation, solitary cell migration", "method": "The MCF-7 breast adenocarcinoma cells were obtained from ATCC, cultured in DMEM:F12 (Cambrex, Walkersville, Md., USA) supplemented with 10% fetal bovine serum (FBS) (Gibco, Bethesda, Md., USA), otherwise stated. The stably transfected cell lines were propagated in DMEM:F12 medium supplemented with 10% FBS and 200 μg/ml G418 (Cambrex, Walkersville, Md., USA). The cell lines were seeded onto glass coverslips or plastic dishes coated for 2 h with 10 μg/ml fibronectin (Sigma-Aldrich, St. Louis, Mo., USA). Scratch-wound assays were performed on stable transfected Syndecan-4 wild, Ser179Ala and Ser179Glu cells at 80% confluency. The cultures were scratched with a sterile P10 pipette tip 3-4 times in parallel lines. Images were taken 12, 24, 36 and 48 h following wounding.\nIn the cell migration assay 60% confluent MCF7 cells or the stably transfected lines were stimulated by 1 μM phorbol-12-myristate-13-acetate (PMA; from Sigma-Aldrich St. Louis, Mo., USA), otherwise stated. The images were taken using 10×, 20×0.3 objective at 3-min intervals for 2 h using inverted microscope (Leica) and organized into time-lapse movies in Adobe ImageReady® v. 8.\nResults of the previous scratch-wound assay gave a hint that the Ser179Glu cells gained a migratory phenotype. […]"}, "MCF7 cells": {"test_system": "MCF7 cells", "assay": "Neuronal differentiation under serum starvation", "conditions": "4-5 weeks, bIII-tubulin marker", "method": "FIG. 8. Neuronal differentiation induced by short Syndecan-4 peptides. MCF7 cells were transfected with wild type syndecan-4 (A) and DEGEpC3 (B), respectively. […] Red: b3-tubulin staining. Blue: Hoechst nuclear staining (A). DEGEpC3: […] was joined to GFP.\nShort peptides with the sequence […] (SEQ.ID.NO.: 3) and […] (SEQ.ID.NO.: 4) were tested under serum starvation."}}, "note": "Values joined by “and” are separate entries in the source; they are usually repeats but may differ in a detail not shown here. Identical values can stand only once.", "data": [{"compound": "Cn1c2ccccc2c2c3c(c4c5ccccc5n(CCC#N)c4c21)C(=O)NC3", "note": "[Gö6976, reference compound]", "values": [{"measurement": "activated Rac1 level", "setting": "Rac1", "value": "reduced"}]}, {"compound": "CCCCCCCCCCCCCC(=O)O[C@@H]1[C@@H](C)[C@@]2(O)[C@@H](C=C(CO)C[C@]3(O)C(=O)C(C)=C[C@@H]23)[C@@H]2C(C)(C)[C@]12OC(C)=O", "note": "[PMA, phorbol-12-myristate-13-acetate, reference compound]", "values": [{"measurement": "migration velocity", "setting": "MCF-7 cells", "value": "0.3±0.1 μm/min and 0.3 μm/min"}]}, {"compound": "MYRMKKKDEGEYDL [DEGEpC3]", "values": [{"measurement": "neuronal differentiation phenotype", "setting": "MCF7 cells", "value": "neuron-like phenotype"}]}, {"compound": "RMKKKDEGDYDLG (Syndecan-4 sequence) [SEQ.ID.NO.: 4]", "values": [{"measurement": "neuronal differentiation phenotype", "setting": "MCF7 cells", "value": "neuron-like phenotypes"}]}, {"compound": "RMKKKDEGEYDLG (Syndecan-4 sequence) [SEQ.ID.NO.: 3]", "values": [{"measurement": "neuronal differentiation phenotype", "setting": "MCF7 cells", "value": "neuron-like phenotypes"}]}]}
